{"source": "patent US12656344B2", "about": "“CTL peptide epitopes and antigen-specific T cells, methods for their discovery, and uses thereof” (Oslo universitetssykehus HF, priority 2013, dated 2026)", "key": {"[1]": {"system": "T cell clones reactive to MPO peptide #25", "assay": "Binding of HLA-A2 multimers with alanine-substituted MPO peptide #25 to T cell clones", "assay_type": "cell-based, human", "settings": "PE-conjugated multimers; 3 T cell clones from CTL line #25; flow cytometry", "method": "FIG. 6A-C. […] (A) Assays were performed as described in FIG. 2, except that only degranulation responses were measured. […] (B) Three of the clones shown in (A) were examined for binding of PE-conjugated HLA-A2 multimers containing the #25 peptide with and without an alanine substitution in each position, using flow cytometry.\nTo obtain more information on the range of T cell reactivities to one of these novel T cell epitopes, T-cell clones were generated from CTL line #25, specific for MPO epitope […] (SEQ ID NO:45)."}, "[2]": {"system": "primary T cells transduced with a MART-1 specific TCR", "assay": "Binding of alanine-replaced peptide #25 multimers to MART-1 TCR transduced T cells", "assay_type": "cell-based, human", "settings": "specificity control for alanine-replaced multimers"}}, "note": "Where no end group is shown, it is not given here."}
{"substance": "P506A: MPO peptide #25 (LIQPFMFRL) with an alanine-replacement in position 4, in HLA-A2 multimer (LIQAFMFRL; also: in HLA-A2 multimer) [Peptide P506A]", "values": [{"measurement": "HLA-A2 multimer binding of alanine-substituted #25 peptide relative to WT peptide", "setting": "[1]", "value": "higher binding"}, {"measurement": "Multimer binding to primary T cells transduced with a MART-1 specific TCR", "setting": "[2]", "value": "bound non-specifically"}]}
